Each structure is given as a SMILES string.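 Grown in 96-well plates, cells were treated for 48 hours with each compound at five concentrations. Insufficient inhibition: endpoint recorded as highest concentration tested. GI50 marks 50% less growth.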 Active and inactive are the calls of the source. Rule as the data show it: active = GI50 up to about 1.1 µM and inactive = higher.

Test systems include OVCAR-5; RPMI-8226; LOX IMVI; SK-MEL-28; NCI-H226; HCC 2998; ACHN; BT-549; SK-MEL-5; HCT-15; K562; KM12; Malme-3M; 786-0; NCI-H23; Hs-578T; COLO 205; MDA-MB-435; UACC-62.
Holding throughout (assay): NCI-60 cell line screen, 48 h

As to `O=C(NCCN1CCCCC1)c1ccc(I)cc1`, the GI50 with OVCAR-5, in the experiment on RPMI-8226, in the experiment with LOX IMVI, in the experiment on SK-MEL-28, in the experiment on NCI-H226 and with HCC 2998 was > 100 µM (inactive) each time. Also, the GI50 in the experiment on ACHN is > 100 µM (inactive); with BT-549 it was > 100 µM (inactive); in the experiment on SK-MEL-5, 33.9 µM (inactive); with HCT-15 it was more than 100 µM; with K562, > 100 µM (inactive); with KM12, > 100 µM (inactive). Besides, the GI50 was > 100 µM (inactive) in the experiment on Malme-3M; > 100 µM (inactive) in the experiment with 786-0; > 100 µM (inactive) in the experiment with NCI-H23; 61 µM (inactive) in the experiment on Hs-578T; 94.6 µM (inactive) with COLO 205; > 100 µM (inactive) in the experiment on MDA-MB-435.

For `COCc1nc(C#N)c(N)o1`, the GI50 with RPMI-8226, in the experiment on LOX IMVI, with SK-MEL-28, with NCI-H226, in the experiment with HCC 2998 and in the experiment on ACHN was > 10 µM (inactive) in each case. For the same compound, the GI50 was > 10 µM (inactive) in the experiment on BT-549; > 10 µM (inactive) with SK-MEL-5; more than 10 µM in the experiment on HCT-15; > 10 µM (inactive) with K562; > 10 µM (inactive) with KM12; > 10 µM (inactive) with Malme-3M. The GI50 with 786-0, in the experiment with UACC-62, with NCI-H23, in the experiment on Hs-578T, with COLO 205 and with MDA-MB-435 was > 10 µM (inactive) each time.

As for `CC(=O)OCC1CCC(=C2C(=O)OC(C)(C)OC2=O)N1` (stereo not given), the GI50 in the experiment with RPMI-8226, in the experiment with LOX IMVI, with SK-MEL-28, with NCI-H226, in the experiment on HCC 2998 and with BT-549 was > 100 µM (inactive) throughout. The GI50 in the experiment on SK-MEL-5 was > 100 µM (inactive); in the experiment with HCT-15, more than 100 µM; in the experiment with K562 it was > 100 µM (inactive); with KM12 it was > 100 µM (inactive); in the experiment on Malme-3M, > 100 µM (inactive); in the experiment on 786-0, > 100 µM (inactive). For the same compound, the GI50 in the experiment on UACC-62, in the experiment on NCI-H23, with Hs-578T, in the experiment with COLO 205 and in the experiment with MDA-MB-435 was > 100 µM (inactive) throughout.

On to `Cc1nn(C(=O)c2ccncc2)c2c1C(c1ccc([N+](=O)[O-])cc1)SC(=N)N2` (stereo not given), for which the GI50 in the experiment on OVCAR-5, with RPMI-8226, with LOX IMVI, in the experiment on SK-MEL-28, with NCI-H226 and in the experiment with ACHN was > 100 µM (inactive) each time. Further, the GI50 with BT-549 is > 100 µM (inactive); in the experiment with SK-MEL-5, > 100 µM (inactive); in the experiment on HCT-15, more than 100 µM; in the experiment on K562 it was > 100 µM (inactive); in the experiment on KM12, > 100 µM (inactive); in the experiment with Malme-3M, > 100 µM (inactive). The GI50 with 786-0, with UACC-62, in the experiment with NCI-H23, in the experiment on Hs-578T, with COLO 205 and with MDA-MB-435 was > 100 µM (inactive) throughout.

Regarding `C1CCNCC1.O=C1NC(=S)N/C1=C/c1ccccc1O`, the GI50 with OVCAR-5 was > 100 µM (inactive); with RPMI-8226, 45.2 µM (inactive); in the experiment with LOX IMVI, > 100 µM (inactive); with SK-MEL-28 it was > 100 µM (inactive); in the experiment with NCI-H226 it was > 100 µM (inactive); in the experiment on HCC 2998, 23.5 µM (inactive). Also, the GI50 was > 100 µM (inactive) in the experiment on ACHN; > 100 µM (inactive) in the experiment with BT-549; > 100 µM (inactive) with SK-MEL-5; more than 100 µM with HCT-15; > 100 µM (inactive) in the experiment with Malme-3M; > 100 µM (inactive) in the experiment with 786-0. Also, the GI50 in the experiment on UACC-62 is > 100 µM (inactive); in the experiment on NCI-H23, > 100 µM (inactive); in the experiment with Hs-578T, 26.4 µM (inactive); in the experiment on COLO 205, > 100 µM (inactive); in the experiment with MDA-MB-435 it was > 100 µM (inactive).

For `COc1cc(S(=O)(=O)Nc2ccc(-c3csc(N4C(=O)C(C)SC4c4cccs4)n3)cc2)ccc1Cl` (stereo not given), the GI50 was > 100 µM (inactive) with OVCAR-5; 24.1 µM (inactive) in the experiment with RPMI-8226; 5.27 µM (inactive) in the experiment on LOX IMVI; 23.8 µM (inactive) in the experiment with SK-MEL-28; 6.28 µM (inactive) with NCI-H226; > 100 µM (inactive) with ACHN. For the same compound, the GI50 was 34 µM (inactive) in the experiment with BT-549; 41.3 µM (inactive) with SK-MEL-5; 37 µM in the experiment on HCT-15; 28.4 µM (inactive) in the experiment with K562; 0.931 µM (active) in the experiment with KM12; 60.5 µM (inactive) in the experiment on Malme-3M. In addition, the GI50 with 786-0 is 34.6 µM (inactive); in the experiment with UACC-62, 89.3 µM (inactive); with NCI-H23, 39.8 µM (inactive); in the experiment with Hs-578T, 6.17 µM (inactive); with COLO 205, 24.9 µM (inactive); with MDA-MB-435 it was 30 µM (inactive).

For the compound `CCOC(=O)Oc1cc2ccsc2c2c1c1ccccc1n2C(=O)OCC`, the GI50 in the experiment with OVCAR-5 is > 100 µM (inactive); with RPMI-8226 it was 82 µM (inactive); with LOX IMVI, > 100 µM (inactive); with SK-MEL-28, > 100 µM (inactive); with NCI-H226 it was 42.2 µM (inactive); with ACHN, 28.3 µM (inactive). Further, the GI50 in the experiment on BT-549 was 59 µM (inactive); with SK-MEL-5 it was 63.7 µM (inactive); with HCT-15, 26.2 µM; in the experiment on K562, > 100 µM (inactive); in the experiment with KM12 it was 49.9 µM (inactive); with Malme-3M, 33.7 µM (inactive). The GI50 in the experiment with 786-0 was 34.1 µM (inactive); in the experiment on UACC-62 it was 34.4 µM (inactive); in the experiment with NCI-H23 it was 52.5 µM (inactive); with Hs-578T, 36.4 µM (inactive); in the experiment with COLO 205, > 100 µM (inactive); in the experiment on MDA-MB-435 it was 68.9 µM (inactive).

Take `COC(=O)C1OC(O[C@H]2CC[C@]3(C)[C@H]4CC=C5[C@@H]6CC(C)(C)CC[C@]6(C(=O)OC6OCC(O)C(O)C6OC6OC(C)C(OC7OCC(OC8OCC(O)C(O)C8O)C(O)C7O)C(O)C6O)[C@H](O)C[C@@]5(C)[C@]4(C)CC[C@H]3C2(C)C)C(O)C(O)C1O` (stereo not given in full): the GI50 was 2.77 µM (inactive) in the experiment on OVCAR-5; 5.5 µM (inactive) in the experiment on RPMI-8226; 8.53 µM (inactive) with LOX IMVI; 2.08 µM (inactive) with SK-MEL-28; 1.52 µM (inactive) in the experiment on NCI-H226; 1.63 µM (inactive) with HCC 2998. Further, the GI50 with ACHN is 3.54 µM (inactive); with BT-549, 2.04 µM (inactive); in the experiment on SK-MEL-5, 3.4 µM (inactive); in the experiment with HCT-15 it was 10.6 µM; in the experiment on KM12, 3.72 µM (inactive); in the experiment on Malme-3M it was 4.16 µM (inactive). The GI50 with 786-0 was 6.32 µM (inactive); in the experiment on UACC-62, 3.29 µM (inactive); in the experiment on NCI-H23, 2.43 µM (inactive); in the experiment with Hs-578T, 6.15 µM (inactive); in the experiment on COLO 205 it was 1.66 µM (inactive); in the experiment on MDA-MB-435 it was 1.95 µM (inactive).

As to `Fc1ccc2c(c1)nc1n2C(c2c(F)cccc2F)SC1` (stereo not given), the GI50 in the experiment with OVCAR-5 is 98.6 µM (inactive); in the experiment on RPMI-8226, 78.9 µM (inactive); in the experiment with LOX IMVI it was 45.7 µM (inactive); with SK-MEL-28 it was > 100 µM (inactive); with NCI-H226, > 100 µM (inactive); with HCC 2998, 71.6 µM (inactive). Besides, the GI50 in the experiment with ACHN is > 100 µM (inactive); in the experiment on BT-549, 42.5 µM (inactive); in the experiment with SK-MEL-5 it was 21.8 µM (inactive); in the experiment on HCT-15, 38.3 µM; in the experiment on KM12 it was 18.2 µM (inactive); in the experiment with Malme-3M it was 55.1 µM (inactive). Moreover, the GI50 is 66.7 µM (inactive) in the experiment on 786-0; 45.5 µM (inactive) in the experiment with UACC-62; 34 µM (inactive) with NCI-H23; 47 µM (inactive) with Hs-578T; 80.2 µM (inactive) in the experiment on COLO 205; 49.9 µM (inactive) with MDA-MB-435.

Consider `O=C1Cc2c([nH]c3ccc(Br)cc23)-c2cc(O)c(O)cc2N1`, for which the GI50 with OVCAR-5, with RPMI-8226, in the experiment on LOX IMVI, in the experiment on SK-MEL-28, in the experiment with NCI-H226 and in the experiment with HCC 2998 was > 100 µM (inactive) in each case. For the same compound, the GI50 with ACHN was > 100 µM (inactive); with BT-549, > 100 µM (inactive); in the experiment on HCT-15, more than 100 µM; in the experiment on K562, > 100 µM (inactive); in the experiment on KM12, > 100 µM (inactive); in the experiment with 786-0 it was > 100 µM (inactive). Also, the GI50 in the experiment with UACC-62, in the experiment with NCI-H23, in the experiment with Hs-578T, with COLO 205 and with MDA-MB-435 was > 100 µM (inactive) each time.

Regarding `O=C(NC1CCN(Cc2ccccc2)CC1)c1cccc(I)c1`, the GI50 was 30.3 µM (inactive) in the experiment with OVCAR-5; 12.5 µM (inactive) in the experiment with RPMI-8226; 19.6 µM (inactive) in the experiment on LOX IMVI; 18 µM (inactive) in the experiment on SK-MEL-28; 31.6 µM (inactive) in the experiment on NCI-H226; 52.4 µM (inactive) with ACHN. Besides, the GI50 in the experiment with BT-549 was 42.5 µM (inactive); with SK-MEL-5 it was 16.9 µM (inactive); in the experiment with HCT-15, 17.5 µM; in the experiment with K562 it was 22.6 µM (inactive); in the experiment on KM12, 16.5 µM (inactive); in the experiment on Malme-3M it was 17.1 µM (inactive). For the same compound, the GI50 in the experiment with 786-0 is 25.4 µM (inactive); in the experiment with UACC-62, 20.5 µM (inactive); in the experiment with NCI-H23 it was 24 µM (inactive); with Hs-578T, 29 µM (inactive); with COLO 205, 17.6 µM (inactive); in the experiment on MDA-MB-435, 17.3 µM (inactive).
